Results reported in patent publication US20040110769A1, “Farnesyl protein transferase inhibitor combinations with antiestrogen agents” (priority 2003, published 2004).
“And” between values parts separate entries of the source, which are not always exact repeats. Equal values may be shown once.

Tested on: MCF7 human breast carcinoma cells
Experiment: Anti-tumor activity in established MCF-7 human breast tumor xenografts in nude mice
Type: in vivo
Conditions: MCF-7 xenograft in female nude mice, individual animals showing regression
Protocol: A combination of a farnesyl transferase inhibitor, namely the compound identified as Compound 75 above (R115777), and an anti-estrogen agent, namely tamoxifen (TMX), was tested for anti-tumor activity in comparison with the activity of the individual components of the combination, as described below.
Female Nude-Homo NCRNU non-ovarectimized mice 8 weeks of age were fed ad libitum water and an irradiated standard rodent diet. Mice were housed in stable microisolators on a 12 hour light cycle at 21-22° C. and 40-60% humidity.
Mice were inoculated subcutaneously with 1×10^7 MCF7 human breast carcinoma cells in the flank. Tumors were monitored initially twice a week and then daily as neoplasms reached the desired size, approximately 100 mg. When the carcinomas reached a size between 62-144 mg in calculated tumor weight, the animals were pair matched into the various treatment groups (group mean tumor weights ranged from 83-85 mg).
Estimated tumor weight was calculated using the formula: [formula] […]
The tumor growth inhibition (TGI) endpoint was used in this study to assess the efficacy of the various treatments. The tumor burden endpoint was set at 1.0 g as measured by calliper. TGI values were determined on the last day of the study (Day 5), when all mice were under test, except those that had expired from treatment-related or procedural causes. […]

CC/C(=C(\c1ccccc1)c1ccc(OCCN(C)C)cc1)c1ccccc1 [TMX, tamoxifen]
Regression in Individual Animals (magnitude of tumor regression expressed as % reduction from pretreatment tumor size) (TMX 1 mg/kg, s.c.): 10% and 78% and 94% and 44% and 59% and 31%

Cn1cncc1C(N)(c1ccc(Cl)cc1)c1ccc2c(c1)c(-c1cccc(Cl)c1)cc(=O)n2C (single isomer, unassigned; (+)) [Compound R115777, (+)-6-[amino(4-chlorophenyl)(1-methyl-1H-imidazol-5-yl)methyl]-4-(3-chlorophenyl)-1-methyl-2(1H)-quinolinone]
Regression in Individual Animals (magnitude of tumor regression expressed as % reduction from pretreatment tumor size) (R115777 100 mg/kg, orally qd to end): 93% and 100%
